Assay results published in patent US5051406A, “Pharmaceutical composition using albumin as a carrier and process for producing the same” (Nippon Hypox Laboratories Incorporated, priority 1987, dated 1991).

Experiments:
Format in all cases: in vivo, male rats of Wistar strain
[1] = Absorption of nalidixic acid-albumin composition by gastrointestinal tract (oral, rat serum level)
Description: It was made clear from the following test that the nalidixic acid-albumin composition (nalidixic acid content: 8.9%) obtained according to the present invention improves the absorption of nalidixic acid administered after meals.
Male rats of Wistar strain each weighing about 290 g obtained from Sankyo Labo. were used under a satiety condition.
The administration amount was 50 mg/kg in terms of nalidixic acid. A composition was administered in a form of its suspension in 1 ml of water, using an oral sonde. About 0.2 ml of blood was drawn from the eyeground of rat using a capillary (Drummond, 0.1 ml) and then centrifuged to obtain a serum.
The serum was mixed with an equal volume of methanol to deproteinize the serum. The determination for the deproteinized serum was conducted according to high performance liquid chromatography.
Column: ODS-80TM manufactured by TOYO SODA, 4.6 mm×15 cm
Mobile phase: Acetonitrile: 50 mM citric acid solution: 1 M ammonium acetate =35 : 64 : 1
Detection wavelength: 258 nm
Column temperature: Room temperature
The calibration curve was obtained by adding known nalidixic acid to a blank serum and subjecting the mixture to the same procedure as for the sample.

[2] = system: stomach mucous membrane (ulcer); assay: Formation of stomach ulcer by Indometacin-albumin composition; conditions: rat, fasted, oral, 20 mg/kg in terms of Indometacin, 7 hours
Description: It is known that while non-steroidal anti-inflammatory agents show a strong anti-inflammatory action to inflammation-affected parts, they cause hemorrhage and ulcer to the digestive system.
The test was conducted according to the method by Okabe et al. (J. Jap. Pharmacol. Vol. 29, 670 (1979)). That is, two groups of male rats of Wistar strain each weighing 180-200 g (one group consisted of 8 such rats) were fasted for about 18 hours. As test samples, there were used suspensions obtained by suspending the Indometacin-albumin composition (Indometacin 3 g albumin 30 g) obtained in Example 23 or 24 (described later) in a 1% carboxymethyl cellulose sodium solution (hereinafter referred to as 1% CMCNa) in an amount of 20 mg/kg in terms of Indometacin. These suspensions were orally administered to the rats at a proportion of 0.5 ml/100 g (rat). As a control sample, a suspension obtained by suspending an Indometacin powder in 1% CMCNa in an amount of 20 mg/kg was administered similarly. After 7 hours from the administration, all the rats were sacrificed under etherization. 8 ml of a 1% aqueous buffered formalin solution was injected into the stomach of each rat. […] Thereafter, the stomach was incised along the greater curvature and the lesioned portions (ulcer portions) generated in the mucous membrane were measured for their major axes (mm) under a stereoscopic microscope. […]

[3] = system: carragheenin induced plantar edema; assay: Anti-inflammatory action, carragheenin induced plantar edema method; conditions: rat, oral, 5 mg/kg in terms of Indometacin
Description: The anti-inflammatory action of the Indometacin-albumin composition can also be proven by the following test by carragheenin induced plantar edema method.
A wide-mouthed glass container filled with water was placed on an electronic even balance. Into the water was immersed the sole of the right hind leg of rat up to the borders of the hair, and the resulting weight increase was measured to obtain a volume of the sole.
Three groups of male rats of Wistar strain each weighing 150-180 g (one group consisted of 6 such rats) were fasted for 18 hours and then measured for their sole volumes. These volumes were each taken as a sole volume before administration.
As test samples, there were used two suspensions, i.e. a suspension obtained by suspending the Indometacin-egg albumin composition (Indometacin 3 g / egg albumin 30 g) obtained in Example 24 (described later) in 1% CMCNa in an amount of about 5 mg/kg in terms of Indometacin and a suspension obtained by suspending an Indometacin powder in 1% CMCNa in an amount of 5 mg/kg in terms of Indometacin. These suspensions were orally administered to two sample groups at a proportion of 0.5 ml/100 g (rat). At 30 minutes after the oral administration, 0.1 ml of a physiological saline solution containing 1% of λ-carragheenin was subcutaneously administered to each rat at the sole of right hind leg and, immediately, 5 ml of water was administered orally. In 1, 3 and 5 hours after the administration of the 1% λ-carragheenin solution, the sole volume of each rat was measured. Then, the swelling percent of each individual rat, the average swelling percent of each group and the corresponding inhibition ratio were calculated according to the following formulae.
As a control sample, there was used 1% CMCNa, and it was orally administered to one control group at a proportion of 0.5 ml/100 g (rat). The results were compared with those of the sample-administered groups.
Swelling percent (%)=((B-A).div.A)×100
Inhibition ratio (%)=((C-D).div.C)×100
A: Sole volume before administration
B: Sole volume after administration
C: Average swelling percent of control group
D: Average swelling percent of sample group

Structure (SMILES)	AUC at 8 h ([1]; 50 mg/kg in terms of nalidixic acid, 0-8 hours, read-out: area below the blood concentration-time curve (AUC) between 0 and 8 hours) [ng·h/mL]	Tmax ([1]; 50 mg/kg in terms of nalidixic acid, satiety condition, read-out: time at which blood concentration of nalidixic acid reached the maximum) [h]	Cmax ([1]; same amount (50 mg/kg), satiety condition, read-out: maximum blood concentration of nalidixic acid (powder, unit printed as μg)) [ng/mL]	Incidence [2] [%]	Ulcer index (Mean ± S.E.) ([2]; total of major axes (mm) of ulcers)	Swelling percent, 1 hr ([3]; 1 hr after λ-carragheenin) [%]	Swelling percent, 3 hr ([3]; 3 hr after λ-carragheenin) [%]	Swelling percent, 5 hr ([3]; 5 hr after λ-carragheenin) [%]	Inhibition ratio, 1 hr ([3]; vs 1% CMCNa control, 1 hr after λ-carragheenin) [%]	Inhibition ratio, 3 hr ([3]; vs 1% CMCNa control, 3 hr after λ-carragheenin) [%]	Inhibition ratio, 5 hr ([3]; vs 1% CMCNa control, 5 hr after λ-carragheenin) [%]
CCn1cc(C(=O)O)c(=O)c2ccc(C)nc21 [nalidixic acid powder, nalidixic acid]	34600	3	~7000	–	–	–	–	–	–	–	–
COc1ccc2c(c1)c(CC(=O)O)c(C)n2C(=O)c1ccc(Cl)cc1 [Indometacin powder, Indometacin]	–	–	–	100.0	341.7 ± 49.9	10.3	8.4	8.5	39.4	52.5	60.5
